From PubChem BioAssay AID200 (DTP/NCI, 2004)
Several values for one entry are separate records, joined by “and”; a condition that tells them apart may be missing. Identical values can stand only once. Inconclusive results and toxic doses are left out. Where a SMILES comes first, the peptide text is derived from it. [ ]: non-standard residue; d: D form. The star is where a group is joined. Nle = CCCC[CH](N)C(=O)O; Cbz = O=C(OCc1ccccc1)*

Test system: B6C3F1 mice, B16 melanoma ip, median survival T/C
Assay: NCI In Vivo Anticancer Drug Screen. Data for tumor model B16 Melanoma (intraperitoneal) in B6C3F1 mice
Conditions: endpoint: median survival time, schedule: Q01DX009 (ip), higher = longer survival
Method: The antitumor activity of compounds was measured in mice bearing transplantable tumors. Survival or tumor size were measured and the results are expressed as the measurement made in the treated group (T) divided by the measurement made in the vehicle treated control group (C). The tumor model used in this assay is B16 Melanoma (intraperitoneal) in B6C3F1 mice

[1] = dose: 12.5 mg/kg/injection, vehicle: saline
[2] = dose: 25.0 mg/kg/injection, vehicle: saline
[3] = dose: 50.0 mg/kg/injection, vehicle: saline
[4] = dose: 12.5 mg/kg/injection, vehicle: saline with Tween-80
[5] = dose: 25.0 mg/kg/injection, vehicle: saline with Tween-80
[6] = dose: 50.0 mg/kg/injection, vehicle: saline with Tween-80
[7] = dose: 6.25 mg/kg/injection, vehicle: saline with Tween-80
[8] = dose: 100.0 mg/kg/injection, vehicle: Klucel (hydroxypropylcellulose) (HPC)
[9] = dose: 200.0 mg/kg/injection, vehicle: Klucel (hydroxypropylcellulose) (HPC)

CNC(=O)/C=C/C1=CN2C(=O)c3ccc(C)c(O)c3NC(OC)C2C1 (stereo not drawn)
T/C (dose: 0.01 mg/kg/injection, vehicle: saline): 109 % of control and 106 % of control | T/C (dose: 0.02 mg/kg/injection, vehicle: saline): 109 % of control | T/C (dose: 0.03 mg/kg/injection, vehicle: saline): 115 % of control | T/C (dose: 0.05 mg/kg/injection, vehicle: saline): 113 % of control and 116 % of control | T/C (dose: 0.05 mg/kg/injection, vehicle: suspension in saline): 98 % of control | T/C (dose: 0.1 mg/kg/injection, vehicle: saline): 117 % of control and 98 % of control | T/C (dose: 0.1 mg/kg/injection, vehicle: suspension in saline): 97 % of control | T/C (dose: 0.2 mg/kg/injection, vehicle: saline): 119 % of control

O=CC(S)CO (stereo not drawn)
T/C [1]: 107 % of control | T/C [2]: 111 % of control | T/C [3]: 123 % of control

Cc1c(NS(=O)(=O)c2ccccc2)c(C)c(NS(=O)(=O)c2ccccc2)c(C)c1NS(=O)(=O)c1ccccc1
T/C [4]: 97 % of control | T/C [5]: 100 % of control | T/C [6]: 94 % of control

O=C1C2CC(CN3CCCCC23)C2CCCCN12 (stereo not drawn)
T/C (dose: 37.5 mg/kg/injection, vehicle: saline): 104 % of control | T/C (dose: 75.0 mg/kg/injection, vehicle: saline): 105 % of control | T/C (dose: 150.0 mg/kg/injection, vehicle: saline): 97 % of control

CCCNc1ncnc2c1cnn2C
T/C [1]: 91 % of control | T/C [2]: 93 % of control

Nc1ncnc2c1ncn2C1C=C(CO)C(O)C1O (stereo not drawn)
T/C (dose: 0.5 mg/kg/injection, vehicle: saline): 97 % of control and 106 % of control | T/C (dose: 1.0 mg/kg/injection, vehicle: saline): 99 % of control and 103 % of control | T/C (dose: 2.0 mg/kg/injection, vehicle: saline): 102 % of control and 103 % of control | T/C (dose: 4.0 mg/kg/injection, vehicle: saline): 110 % of control and 105 % of control

ClC(Cl)(Cl)Sn1cccn1
T/C (dose: 3.12 mg/kg/injection, vehicle: saline with Tween-80): 103 % of control | T/C [7]: 87 % of control | T/C [3]: 87 % of control

CCCCC(NC(=O)OCc1ccccc1)C(=O)NC(C(=O)O)C(C)C (stereo not drawn) (Cbz-[Nle]-Val-OH; configuration not given here)
T/C [8]: 108 % of control | T/C [9]: 105 % of control

CCCCCC(O)C1C(=O)OC(C)C(O)/C=C/C=C/C=C/C=C/C=C(\C)C(O)C(O)C(O)CC(O)CC(O)CC(O)CC(O)CC1O (stereo not drawn)
T/C (dose: 0.5 mg/kg/injection, vehicle: other): 98 % of control | T/C (dose: 1.0 mg/kg/injection, vehicle: other): 119 % of control | T/C (dose: 1.56 mg/kg/injection, vehicle: saline): 102 % of control | T/C (dose: 3.12 mg/kg/injection, vehicle: saline): 88 % of control | T/C (dose: 4.0 mg/kg/injection, vehicle: other): 169 % of control | T/C (dose: 8.0 mg/kg/injection, vehicle: other): 166 % of control

Cn1nnc2c(C(N)=O)ncn2c1=O
T/C (dose: 12.5 mg/kg/injection, vehicle: suspension in saline): 113 % of control | T/C (dose: 50.0 mg/kg/injection, vehicle: suspension in saline): 167 % of control | T/C (dose: 100.0 mg/kg/injection, vehicle: saline): 181 % of control | T/C (dose: 100.0 mg/kg/injection, vehicle: suspension in saline): 206 % of control

CC(C)(OC(=O)NC(CC(N)=O)C(=O)O)c1ccc(-c2ccccc2)cc1 (stereo not drawn)
T/C [8]: 97 % of control | T/C [9]: 91 % of control | T/C (dose: 400.0 mg/kg/injection, vehicle: Klucel (hydroxypropylcellulose) (HPC)): 89 % of control

C=C(C)C(=NC(C)(C)C)Nc1ccccc1
T/C [7]: 98 % of control | T/C [4]: 122 % of control | T/C [5]: 109 % of control | T/C [6]: 91 % of control | T/C (dose: 100.0 mg/kg/injection, vehicle: saline with Tween-80): 96 % of control | T/C (dose: 200.0 mg/kg/injection, vehicle: saline with Tween-80): 114 % of control

CCS(=O)(=O)OCCCCOS(=O)(=O)CC
T/C [5]: 97 % of control | T/C [6]: 100 % of control

Cc1cc(=O)n2c3c(c4c(cc13)c(CN(C)C)cc(=O)n4C)OC2
T/C [7]: 105 % of control | T/C [4]: 98 % of control | T/C [5]: 100 % of control | T/C [6]: 111 % of control
